Results taken from ChEMBL document CHEMBL6127014, “Repurposing antiplasmodial leads for cancer: Exploring the antiproliferative effects of N-cinnamoyl-aminoacridines” (Bioorg Med Chem Lett, 2024).
pIC50: −log10 of the molar value. Active and inactive are the calls of the source. The rule behind the calls is not given here.

Key:
MKN-28 [1] = test: Cytotoxicity against human MKN-28 cells assessed as reduction in cell viability at 12.5 to 50 uM incubated for 24 hrs by MTT assay; type: functional, cell-based; details: dose 12.5-50 µM
[2] = Cytotoxicity against HDF cells assessed as reduction in cell viability at 12.5 to 50 uM incubated for 24 hrs by MTT assay; type: toxicity, cell-based; details: human, dose 12.5-50 µM
MKN-28 [3] = test: Antiproliferative activity against human MKN-28 cells assessed as inhibition of cell growth incubated for 24 hrs by MTT assay; type: functional, cell-based; details: MKN-28, 24 h
[4] = Cytotoxicity against HDF cells assessed as inhibition of cell growth incubated for 24 hrs by MTT assay; type: toxicity, cell-based; details: human
[5] = Selectivity index, ratio of IC50 for cytotoxicity against HDF cells to IC50 for antiproliferative activity against human MKN-28 cells; type: toxicity, cell-based; details: HDF cells versus MKN-28 cells, read-out: Ratio IC50
Huh-7 = test: Antiproliferative activity against human Huh-7 cells assessed as inhibition of cell growth incubated for 24 hrs by Alamar blue assay; type: functional, cell-based; details: Huh-7, 24 h
[6] = Selectivity index, ratio of IC50 for cytotoxicity against HDF cells to IC50 for antiproliferative activity against human Huh-7 cells; type: toxicity, cell-based; details: HDF cells versus Huh-7 cells, read-out: Ratio IC50
HepG2 = test: Antiproliferative activity against human HepG2 cells assessed as inhibition of cell growth incubated for 24 hrs by Alamar blue assay; type: functional, cell-based; details: HepG2, 24 h
[7] = Selectivity index, ratio of IC50 for cytotoxicity against HDF cells to IC50 for antiproliferative activity against human HepG2 cells; type: toxicity, cell-based; details: HDF cells versus HepG2 cells, read-out: Ratio IC50
MKN-28 [8] = test: Cytotoxicity against human MKN-28 cells assessed as reduction in cell viability at 12.5 to 25 uM incubated for 24 hrs by MTT assay; type: functional, cell-based; details: dose 12.5-25 µM
[9] = Cytotoxicity against HDF cells assessed as reduction in cell viability at 12.5 to 25 uM incubated for 24 hrs by MTT assay; type: toxicity, cell-based; details: human, dose 12.5-25 µM
MKN-28 [10] = test: Antiproliferative activity against human MKN-28 cells assessed as inhibition of cell growth incubated for 2 days by SRB assay; type: functional, cell-based; details: MKN-28, 48 h

SMILES | Activity (MKN-28 [1]) | Activity [2] | pIC50 (MKN-28 [3]) | IC50 at 24 h [4] [µM] | selectivity ratio [5] | pIC50 (Huh-7) | selectivity ratio [6] | pIC50 (HepG2) | selectivity ratio [7] | Activity (MKN-28 [8]) | Activity [9] | pIC50 (MKN-28 [10])
CCN(CC)CCCNc1c2ccc(Cl)cc2nc2c(NCCCCNC(=O)/C=C/c3ccc(F)cc3)cc(OC)cc12 | Active | Non-Toxic | 4.91 | > 50 | > 4.1 | 4.95 | > 4.5 | 5.20 | > 7.9 |  |  | 
CCN(CC)CCCC(C)Nc1c2ccc(Cl)cc2nc2c(NCCCCNC(=O)/C=C/c3ccc(OC)cc3)cc(OC)cc12 (stereo not drawn) | Active | Non-Toxic | 4.86 | > 50 | > 3.6 | 4.92 | > 4.1 | 5.48 | > 15 |  |  | 
COc1cc(NCCCCNC(=O)/C=C/c2ccc([N+](=O)[O-])cc2)c2nc3cc(Cl)ccc3cc2c1 |  |  |  |  |  |  |  |  |  | inactive | Non-Toxic | 
COc1cc(NCCCCNC(=O)/C=C/c2cccc(Br)c2)c2nc3cc(Cl)ccc3cc2c1 |  |  |  |  |  |  |  |  |  | inactive | Non-Toxic | 
CCN(CC)CCCNc1c2ccc(Cl)cc2nc2c(NCCCCNC(=O)/C=C/c3ccccc3)cc(OC)cc12 | Active | Non-Toxic | 4.81 | > 50 | > 3.2 | 4.92 | > 4.1 | 5.39 | > 12.2 |  |  | 
CCN(CC)CCCC(C)Nc1c2ccc(Cl)cc2nc2ccc(OC)cc12 (stereo not drawn) [QUINACRINE] |  |  |  |  |  | 5.06 |  | 5.35 |  |  |  | 5.61
COc1cc(NCCCCNC(=O)/C=C/c2ccc(C)cc2)c2nc3cc(Cl)ccc3cc2c1 |  |  |  |  |  |  |  |  |  | inactive | Non-Toxic | 
COc1cc(NCCCCNC(=O)/C=C/c2ccc(F)cc2)c2nc3cc(Cl)ccc3cc2c1 |  |  |  |  |  |  |  |  |  | inactive | Non-Toxic | 
CCN(CC)CCCC(C)Nc1c2ccc(Cl)cc2nc2c(NCCCCNC(=O)/C=C/c3ccccc3)cc(OC)cc12 (stereo not drawn) | Active | Non-Toxic | 5.00 | > 50 | > 5 | 5.14 | > 6.9 | 5.38 | > 12 |  |  | 
CCN(CC)CCCNc1c2ccc(Cl)cc2nc2c(NCCCCNC(=O)/C=C/c3ccc(OC)cc3)cc(OC)cc12 | Active | Non-Toxic | 4.81 | > 50 | > 3.2 | 4.91 | > 4 | 5.27 | > 9.3 |  |  | 
COc1cccc2c1C(=O)c1c(O)c3c(c(O)c1C2=O)C[C@@](O)(C(=O)CO)C[C@@H]3O[C@H]1C[C@H](N)[C@H](O)[C@H](C)O1 [DOXORUBICIN] |  |  |  |  |  | 5.22 |  | 6.37 |  |  |  | 6.47
CCN(CC)CCCC(C)Nc1c2ccc(Cl)cc2nc2c(NCCCCNC(=O)/C=C/c3cccc(F)c3)cc(OC)cc12 (stereo not drawn) | Active | Non-Toxic | 4.90 | > 50 | > 3.9 | 4.89 | > 3.9 | 5.30 | > 9.9 |  |  | 
COc1cc(NCCCCNC(=O)/C=C/c2ccc(C(C)C)cc2)c2nc3cc(Cl)ccc3cc2c1 |  |  |  |  |  |  |  |  |  | inactive | Non-Toxic | 
CCN(CC)CCCC(C)Nc1c2ccc(Cl)cc2nc2c(NCCCCNC(=O)/C=C/c3ccc(F)cc3)cc(OC)cc12 (stereo not drawn) | Active | Non-Toxic | 4.90 | > 50 | > 4 | 4.91 | > 4 | 5.12 | > 6.5 |  |  | 
COc1cc(NCCCCNC(=O)/C=C/c2ccc(C(F)(F)F)cc2)c2nc3cc(Cl)ccc3cc2c1 |  |  |  |  |  |  |  |  |  | inactive | Non-Toxic | 
COc1cc(NCCCCNC(=O)/C=C/c2ccc(OC)c(OC)c2)c2nc3cc(Cl)ccc3cc2c1 |  |  |  |  |  |  |  |  |  | inactive | Non-Toxic | 
CCN(CC)CCCNc1c2ccc(Cl)cc2nc2c(NCCCCNC(=O)/C=C/c3cccc(F)c3)cc(OC)cc12 | Active | Non-Toxic | 4.89 | > 50 | > 3.8 | 4.94 | > 4.3 | 5.28 | > 9.6 |  |  | 
CNc1ccc(/C=C/C(=O)NCCCCNc2cc(OC)cc3cc4ccc(Cl)cc4nc23)cc1 |  |  |  |  |  |  |  |  |  | inactive | Non-Toxic | 
COc1cc(NCCCCNC(=O)/C=C/c2cccc(F)c2)c2nc3cc(Cl)ccc3cc2c1 |  |  |  |  |  |  |  |  |  | inactive | Non-Toxic | 
COc1cc(NCCCCNC(=O)/C=C/c2ccccc2)c2nc3cc(Cl)ccc3cc2c1 |  |  |  |  |  |  |  |  |  | inactive | Non-Toxic | 
